In patent US8623912B2, “Fostriecin derivatives and the pharmaceutical uses thereof” (priority 2008, dated 2014):
Read-outs that look alike come from different tables or passages of the source.

Columns and labels:
alkaline phosphatase = type: in vitro ADME; conditions: FIG. 2; for stability under the action of alkaline phosphatase: 75 mM Tris Buffer pH 8.3, 5 mM MgCl2, 37° C., 2-5 hours; for formation of dephosphorylated FST under alkaline phosphatase: conditions of Example 1
Procedure: Reaction condidtions: FST was dissolved in a solution of 75 mM Tris Buffer (pH 8.3) and 5 mM MgCl2 to obtain a 20 mM FST solution, to each milligram of Fostriecin was added 1 to 1.5 units of alkaline phosphatase, enzymolysis was performed at 37° C. for 2-5 hours.
Thiophosphorylated FST(A) and methyl phosphorylated FST(B) were subjected to hydrolysis of alkaline phosphatase under the reaction condidtions as described in Example 1.

HL60 (human leukemia) = assay: Celltiter 96 cell proliferation assay (modified MTT method), HL60; type: cell-based; conditions: read-out: IC50 HL60 (human leukemia)
Procedure: (§1) The anti-tumor activities of the compounds of thiophosphorylated FST (A) and methyl phosphorylated FST (B) of the present invention to various tumor cell lines of HL-60, CCRD-CEM and NCI-H460 were determined by Celltiter 96 cell proliferation assay kit (modified MTT method) manufactured by Promega company. Onto a 96-well plate, total volume 50 ul/well was added with about 5-7.5×10^3 cells/well, and cultured for 24 hours, followed by addition of 50 ul of the compounds (0.001 nM˜1000 nM) to each well, and cultured for 72 hours. Subsequently, 15 ul of MTT staining solution was added to the well, temperature was kept for 4 hours, the thus formed precipitate was then dissolved with 100 ul lysis buffe/stop solution. After 1 hour, the content in the well was mixed homogeneously with a shaker, and the abosorption value (OD 570 nm) of each well was measured by enzyme-labeled instrument (Molecular Devices). The data was analyzed with Kaleida Graph Program, and the IC50 value (the concentration of the compound at which the growth of 50% of the cell is inhibited) was calculated.

[1] = tested on: NCI-H460 (human Lung Cancer); assay: Celltiter 96 cell proliferation assay (modified MTT method), NCI-H460; type: cell-based; conditions: read-out: IC50 NCI-H460 (human Lung Cancer)
Procedure: as §1

[2] = tested on: CCRF-CEM (human leukemia); assay: Celltiter 96 cell proliferation assay (modified MTT method), CCRF-CEM; type: cell-based; conditions: read-out: IC50 CCRF-CEM (human leukemia)
Procedure: as §1

PP4 = target: T1, PP4 (Homo sapiens, UniProt P60510); conditions: cited from earlier work
T1 sequence (P60510 1-307): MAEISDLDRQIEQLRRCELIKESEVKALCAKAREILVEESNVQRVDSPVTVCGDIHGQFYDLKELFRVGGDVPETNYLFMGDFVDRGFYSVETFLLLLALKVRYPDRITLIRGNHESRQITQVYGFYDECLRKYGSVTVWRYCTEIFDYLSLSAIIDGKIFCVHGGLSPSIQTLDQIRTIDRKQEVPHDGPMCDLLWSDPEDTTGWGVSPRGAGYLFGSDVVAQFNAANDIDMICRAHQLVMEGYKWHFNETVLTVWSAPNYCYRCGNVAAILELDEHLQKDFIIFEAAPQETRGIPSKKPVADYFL

protein phophatase PP2A = protein phophatase PP2A (Homo sapiens, UniProt P67775); conditions: cited from earlier work
Chain of protein phophatase PP2A (P67775 whole entry): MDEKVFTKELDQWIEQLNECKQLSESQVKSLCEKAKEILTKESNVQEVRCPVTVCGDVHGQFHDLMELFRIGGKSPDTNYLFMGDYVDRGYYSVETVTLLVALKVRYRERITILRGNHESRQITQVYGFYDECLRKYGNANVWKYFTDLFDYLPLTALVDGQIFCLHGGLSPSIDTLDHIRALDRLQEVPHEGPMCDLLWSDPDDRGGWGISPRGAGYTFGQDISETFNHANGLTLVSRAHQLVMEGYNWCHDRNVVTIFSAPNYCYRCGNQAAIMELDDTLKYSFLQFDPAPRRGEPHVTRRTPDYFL

[3] = HL-60, 72 hours culture with compound, MTT, OD 570 nm
[4] = NCI-H460, 72 hours culture with compound, MTT, OD 570 nm
[5] = 72 hours culture with compound, MTT, OD 570 nm

| SMILES | stability under the action of alkaline phosphatase (alkaline phosphatase) | formation of dephosphorylated FST under alkaline phosphatase (alkaline phosphatase) | IC50 (HL60 (human leukemia); HL-60, 72 h) | IC50 ([1]; NCI-H460, 72 h) | IC50 ([2]; 72 h) | IC50 (HL60 (human leukemia); [3]) | IC50 [1, 4] | IC50 [2, 5] | IC50 (PP4) | IC50 (protein phophatase PP2A) |
| --- | --- | --- | --- | --- | --- | --- | --- | --- | --- | --- |
| C[C@@](O)(/C=C/C1CC=CC(=O)O1)C(C[C@@H](O)\C=C/C=C\C=C\CO)OP(O)(O)=S (stereo partly drawn) [A] | relatively stable | no dephosphorylated FST was formed | 10.5 µM | 13.2 µM | 9.6 µM |  |  |  |  |  |
| C[C@@](O)(/C=C/[C@H]1CC=CC(=O)O1)C(C[C@@H](O)\C=C/C=C\C=C\CO)OCP(=O)(O)O (stereo partly drawn) [B] | relatively stable | no dephosphorylated FST was formed |  |  |  | 12.5 µM | 16.3 µM | 14 µM |  |  |
| CC(O)(C=CC1CC=CC(=O)O1)C(CC(O)C=CC=CC=CCO)OP(=O)(O)O (stereo not drawn) [FST, Fostriecin] |  |  |  |  |  | 12 µM | 14.5 µM | 10 µM | 0.003 µM | 0.0015 µM |
